From patent publication US20220332764A1, “T CELL EPITOPES OF HCMV AND USES OF THEREOF” (EBERHARD KARLS UNIVERSITÄT TÜBINGEN, priority 2019, published 2022) come the findings set out here.

Read-outs that look alike come from different tables or passages of the source.

In assay [1] the test system is PBMCs of healthy HCMV-seropositive donors. The experiment in a line: IFNγ ELISpot after 12 day stimulation (memory T-cell response). It counts as cell-based, human. The note with it: for % Positive donors (after 12 days of stimulation): IFNγ ELISpot, HLA-matched seropositive donors; for ELISpot response rate (12 d stim.): 12-day amplification with IL-2 in vitro; for Positive donors as tested: positive / tested HLA-matched seropositive donors, positive: >10 spots/well and at least 3-fold negative control. The source says: (§1) PHA was used as positive control.

In a further assay the test system is HLA. The following applies: Table 2, preferred dominant epitopes.
The subject of assay [2] is PBMCs of healthy HCMV-seropositive donors. The experiment in a line: ex vivo IFNγ ELISpot without prestimulation. Format: cell-based, human. The note with it: for % Positive donors (ex vivo): IFNγ ELISpot ex vivo, donors previously tested positive; for ELISpot response rate (ex vivo): donors positively tested in ELISpots with 12d stimulation.
Excerpt: as §1

Assay [3] relates to CD8+ / CD4+ T cells of donor PBMCs. The assay can be described thus: Intracellular cytokine staining (ICS; IFNγ, TNFα, CD107a). The note with it: for Intracellular staining: responding T-cell subset; for Intracellular cytokine staining: responding T-cell subset after peptide stimulation. It counts as cell-based, human. The text has this:
PHA was used as positive control. […] (Cytofix/Cytoperm, BD Biosciences).

The test system of assay [4] is CD8+ T cells of HLA-matched healthy donors. The following applies: for Tetramer-staining: after 12 day amplification.

With “GLFAVENFL (listed as Human cytomegalovirus) [SEQ ID NO: 4]”, in assay [1], the “% Positive donors (after 12 days of stimulation)” value was found to be 53.9% and the “Positive donors as tested” value was 7/13. Further, the “ELISpot response rate (12 d stim.)” value in assay [1] (Tested HLA A*02:01) is 53.9. Besides, in the assay with HLA, the “actual HLA restriction” value was “Class II”. Also, the “% Positive donors (ex vivo)” value in assay [2] turned out to be 0.0%. Moreover, the “ELISpot response rate (ex vivo)” value in assay [2] (Tested HLA A*02:01) is 0.0. Further, the Intracellular staining entry in assay [3] (Tested HLA A*02:01) was “CD4”. Besides, the Intracellular cytokine staining result in assay [3] is listed as “CD4”.

With “SPRDAWIVL (listed as Human cytomegalovirus) [SEQ ID NO: 26]”, in assay [1], the “% Positive donors (after 12 days of stimulation)” value is on record as 68.2% and the “Positive donors as tested” value is given as 15/22. The “ELISpot response rate (12 d stim.)” value in assay [1] (Tested HLA B*07:02) is reported as 68.2. For the same sequence, the “% Positive donors (ex vivo)” value in assay [2] is 20.0%. For the same sequence, in assay [2] (Tested HLA B*07:02), the “ELISpot response rate (ex vivo)” value turned out to be 20.0. In assay [4] (Tested HLA B*07:02), the Tetramer staining entry is reported as “positive”. In addition, the Tetramer-staining entry in assay [4] is “Positive”. The Intracellular staining entry in assay [3] (Tested HLA B*07:02) is reported as “CD8”. For the same sequence, in assay [3], the Intracellular cytokine staining entry was “CD8”.

With “SPRHLYISL (listed as Human cytomegalovirus) [SEQ ID NO: 29]”, in assay [1], the “% Positive donors (after 12 days of stimulation)” value is listed as 50.0% and the “Positive donors as tested” value is reported as 11/22. The “ELISpot response rate (12 d stim.)” value in assay [1] (Tested HLA B*07:02) worked out at 50.0. For the same sequence, the “% Positive donors (ex vivo)” value in assay [2] came out at 0.0%. Further, the “ELISpot response rate (ex vivo)” value in assay [2] (Tested HLA B*07:02) is on record as 0.0. The Tetramer staining result in assay [4] (Tested HLA B*07:02) is “positive”. Also, the Tetramer-staining entry in assay [4] was “Positive”. Further, in assay [3], the Intracellular cytokine staining entry is on record as “CD4/CD8”.

For “SPSRDRFVQL (listed as Human cytomegalovirus) [SEQ ID NO: 27]”, in assay [1], the “% Positive donors (after 12 days of stimulation)” value worked out at 66.7% and the “Positive donors as tested” value is reported as 14/21. Moreover, the “ELISpot response rate (12 d stim.)” value in assay [1] (Tested HLA B*07:02) is recorded as 66.7. Besides, in assay [2], the “% Positive donors (ex vivo)” value is listed as 33.3%. The “ELISpot response rate (ex vivo)” value in assay [2] (Tested HLA B*07:02) is 33.3. For the same sequence, in assay [4] (Tested HLA B*07:02), the Tetramer staining entry is reported as “positive”. The Tetramer-staining entry in assay [4] was “Positive”. Also, the Intracellular cytokine staining result in assay [3] is given as “Nega-”.

Regarding “TLIVNLVEV (listed as Human cytomegalovirus) [SEQ ID NO: 3]”, in assay [1], the “% Positive donors (after 12 days of stimulation)” value was determined as 55.0% and the “Positive donors as tested” value is 11/20. Moreover, the “ELISpot response rate (12 d stim.)” value in assay [1] (Tested HLA A*02:01) turned out to be 55.0. The “% Positive donors (ex vivo)” value in assay [2] is recorded as 25.0%. In assay [2] (Tested HLA A*02:01), the “ELISpot response rate (ex vivo)” value stood at 25.0. Moreover, the Tetramer staining entry in assay [4] (Tested HLA A*02:01) was “positive”. The Tetramer-staining entry in assay [4] is on record as “Positive”. Further, the Intracellular staining result in assay [3] (Tested HLA A*02:01) is on record as “CD8”. Besides, the Intracellular cytokine staining result in assay [3] was “CD8”.

In the case of “TPRVTGGGAM (listed as Human cytomegalovirus) [SEQ ID NO: 25]”, in assay [1], the “% Positive donors (after 12 days of stimulation)” value was determined as 81.6% and the “Positive donors as tested” value was 31/38. For the same sequence, in assay [1] (Tested HLA B*07:02), the “ELISpot response rate (12 d stim.)” value turned out to be 81.6. Besides, the “% Positive donors (ex vivo)” value in assay [2] came to 100.0%. Besides, in assay [2] (Tested HLA B*07:02), the “ELISpot response rate (ex vivo)” value is reported as 100.0. Further, the Tetramer staining result in assay [4] (Tested HLA B*07:02) is given as “positive”. Besides, the Tetramer-staining entry in assay [4] is “Positive”. For the same sequence, in assay [3] (Tested HLA B*07:02), the Intracellular staining result is on record as “CD8”. Moreover, in assay [3], the Intracellular cytokine staining entry was “CD8”.

Take “YADPFFLKY (listed as Human cytomegalovirus) [SEQ ID NO: 51]”: in assay [1], the “% Positive donors (after 12 days of stimulation)” value amounted to 100.0% and the “Positive donors as tested” value was 15/15. For the same sequence, in assay [1] (Tested HLA A*01:01), the “ELISpot response rate (12 d stim.)” value is listed as 100.0. The “% Positive donors (ex vivo)” value in assay [2] is 90.9%. Further, the “ELISpot response rate (ex vivo)” value in assay [2] (Tested HLA A*01:01) was 90.9. The Tetramer staining entry in assay [4] (Tested HLA A*01:01) was “positive”. In addition, the Tetramer-staining entry in assay [4] is given as “Positive”. Further, in assay [3] (Tested HLA A*01:01), the Intracellular staining result is listed as “CD8”. In addition, the Intracellular cytokine staining entry in assay [3] was “CD8”.

For the sequence “YLVRRPMTI (listed as Human cytomegalovirus) [SEQ ID NO: 80]”, in assay [1], the “% Positive donors (after 12 days of stimulation)” value was 50.0% and the “Positive donors as tested” value is listed as 11/22. Further, in assay [1] (Tested HLA B*08:01), the “ELISpot response rate (12 d stim.)” value turned out to be 50.0. Besides, the “% Positive donors (ex vivo)” value in assay [2] is 33.3%. Moreover, the “ELISpot response rate (ex vivo)” value in assay [2] (Tested HLA B*08:01) came to 33.3. In addition, the Tetramer staining entry in assay [4] (Tested HLA B*08:01) is reported as “positive”. Also, the Tetramer-staining entry in assay [4] is “Positive”. For the same sequence, in assay [3], the Intracellular cytokine staining entry is recorded as “Nega-”.

Turning to “YPRPPGSGL (listed as Human cytomegalovirus) [SEQ ID NO: 24]”, in assay [1], the “% Positive donors (after 12 days of stimulation)” value is 86.4% and the “Positive donors as tested” value is 19/22. Further, the “ELISpot response rate (12 d stim.)” value in assay [1] (Tested HLA B*07:02) is reported as 86.4. Moreover, the “% Positive donors (ex vivo)” value in assay [2] was 25.0%. Moreover, the “ELISpot response rate (ex vivo)” value in assay [2] (Tested HLA B*07:02) came to 25.0. The Tetramer staining result in assay [4] (Tested HLA B*07:02) was “positive”. In assay [4], the Tetramer-staining entry is recorded as “Positive”. Moreover, the Intracellular cytokine staining entry in assay [3] was “Nega-”.
